The values that follow come from ChEMBL document CHEMBL6078691, “Modulating Phosphorylation by Proximity-Inducing Modalities for Cancer Therapy” (J Med Chem, 2024).

Assay [1] addresses Microtubule-associated protein tau (Homo sapiens, UniProt P10636). The assay can be described thus: Inhibition of tau phosphorylation (unknown origin).
Assay [2] addresses T1, Epidermal growth factor receptor (Homo sapiens, UniProt P00533). The assay can be described thus: Inhibition of EGFR (unknown origin) at 0.5 uM relative to control.
Assay [3] has as its target T1, Epidermal growth factor receptor. Nature of the assay: Inhibition of EGFR (unknown origin).

Microtubule-associated protein tau, sequence (P10636 whole entry): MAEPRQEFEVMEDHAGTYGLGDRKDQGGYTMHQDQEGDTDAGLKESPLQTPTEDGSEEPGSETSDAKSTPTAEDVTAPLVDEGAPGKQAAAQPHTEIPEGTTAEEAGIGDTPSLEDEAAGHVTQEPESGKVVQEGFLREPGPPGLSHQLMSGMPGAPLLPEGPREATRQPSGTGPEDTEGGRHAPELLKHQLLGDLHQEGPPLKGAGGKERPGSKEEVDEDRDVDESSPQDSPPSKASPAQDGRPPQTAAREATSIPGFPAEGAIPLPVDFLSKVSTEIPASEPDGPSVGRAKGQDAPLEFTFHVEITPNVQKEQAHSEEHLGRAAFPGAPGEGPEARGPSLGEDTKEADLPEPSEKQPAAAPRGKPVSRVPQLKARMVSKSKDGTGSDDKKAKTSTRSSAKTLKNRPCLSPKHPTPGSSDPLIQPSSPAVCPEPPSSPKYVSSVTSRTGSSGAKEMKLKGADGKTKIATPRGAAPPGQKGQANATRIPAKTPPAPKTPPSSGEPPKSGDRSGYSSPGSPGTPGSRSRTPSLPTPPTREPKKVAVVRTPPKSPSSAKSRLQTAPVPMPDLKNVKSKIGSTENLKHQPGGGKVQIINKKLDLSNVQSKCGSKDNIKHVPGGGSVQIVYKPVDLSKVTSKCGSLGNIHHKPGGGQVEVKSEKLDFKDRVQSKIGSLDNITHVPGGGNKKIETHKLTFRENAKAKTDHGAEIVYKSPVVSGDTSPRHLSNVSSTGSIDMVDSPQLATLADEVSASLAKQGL
T1 sequence (P00533 whole entry): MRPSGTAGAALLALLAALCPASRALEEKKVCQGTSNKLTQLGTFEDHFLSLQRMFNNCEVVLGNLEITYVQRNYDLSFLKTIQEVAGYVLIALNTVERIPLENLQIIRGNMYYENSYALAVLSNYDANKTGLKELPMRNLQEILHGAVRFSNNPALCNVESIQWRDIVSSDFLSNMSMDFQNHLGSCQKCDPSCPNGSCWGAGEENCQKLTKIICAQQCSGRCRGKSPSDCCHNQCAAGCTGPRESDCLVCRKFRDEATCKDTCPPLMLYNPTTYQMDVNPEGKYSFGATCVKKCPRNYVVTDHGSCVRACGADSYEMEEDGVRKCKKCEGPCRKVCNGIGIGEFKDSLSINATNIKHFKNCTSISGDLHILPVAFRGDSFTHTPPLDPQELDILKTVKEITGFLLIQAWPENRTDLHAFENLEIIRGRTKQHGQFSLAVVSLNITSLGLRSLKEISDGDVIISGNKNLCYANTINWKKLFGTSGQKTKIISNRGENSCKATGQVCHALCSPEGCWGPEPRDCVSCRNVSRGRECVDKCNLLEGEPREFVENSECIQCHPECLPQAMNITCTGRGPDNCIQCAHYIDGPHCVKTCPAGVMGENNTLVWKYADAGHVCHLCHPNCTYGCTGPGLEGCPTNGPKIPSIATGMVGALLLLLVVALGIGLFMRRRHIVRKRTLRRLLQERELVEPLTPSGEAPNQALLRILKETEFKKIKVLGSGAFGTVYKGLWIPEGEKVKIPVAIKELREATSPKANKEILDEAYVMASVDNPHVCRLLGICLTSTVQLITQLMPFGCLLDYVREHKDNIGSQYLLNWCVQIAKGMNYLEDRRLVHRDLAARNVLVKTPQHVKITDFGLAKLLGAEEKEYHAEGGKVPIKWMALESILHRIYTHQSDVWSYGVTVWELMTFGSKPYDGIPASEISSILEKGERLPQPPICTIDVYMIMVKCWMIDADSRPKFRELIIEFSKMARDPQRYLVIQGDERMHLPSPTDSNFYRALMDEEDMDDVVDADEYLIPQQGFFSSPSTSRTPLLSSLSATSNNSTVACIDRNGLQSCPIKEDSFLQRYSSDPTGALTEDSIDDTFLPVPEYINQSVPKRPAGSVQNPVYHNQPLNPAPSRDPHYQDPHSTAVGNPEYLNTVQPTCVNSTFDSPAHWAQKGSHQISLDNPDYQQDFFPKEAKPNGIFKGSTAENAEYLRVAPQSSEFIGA

The compound `CC[C@H](C)[C@H](NC(=O)[C@H](CCSC)NC(=O)[C@H](Cc1c[nH]c2ccccc12)NC(=O)[C@@H](NC(=O)[C@@H](N)CC(=O)O)C(C)C)C(=O)N[C@@H](CC(N)=O)C(=O)N[C@@H](CCCCN)C(=O)N[C@@H](CCCCN)C(=O)N[C@@H](CCCNC(=N)N)C(=O)N[C@@H](CCCCN)C(=O)NCCOCCOCCOCCOCCOCCOCCN[C@@H](CCCNC(=N)N)C(=O)N[C@H](C(=O)N1CCC[C@H]1C(=O)N1CCC[C@H]1C(=O)N[C@@H](CCCCN)C(=O)N[C@@H](CO)C(=O)N1CCC[C@H]1C(=O)N[C@@H](CCCNC(=N)N)C(=O)N[C@@H](CCCNC(=N)N)C(=O)N[C@@H](CCCNC(=N)N)C(=O)N[C@@H](CCCNC(=N)N)C(=O)N[C@@H](CCCNC(=N)N)C(=O)N[C@@H](CCCNC(=N)N)C(=O)N[C@@H](CCCNC(=N)N)C(=O)N[C@@H](CCCNC(=N)N)C(=O)O)[C@@H](C)O` came in with an IC50 in assay [1] of 2 µM.

On to `CC[C@H](C(=O)N1CCCC[C@@H]1C(=O)O[C@H](CCc1ccc(OC)c(OC)c1)c1cccc(OCC(=O)NCCOCCOCCN(C)C/C=C/C(=O)Nc2cc3c(Nc4ccc(F)c(Cl)c4)ncnc3cc2OC)c1)c1cc(OC)c(OC)c(OC)c1`, for which, in assay [2], the inhibition came out at 90%.

`CC[C@H](C(=O)N1CCCC[C@@H]1C(=O)O[C@H](CCc1ccc(OC)c(OC)c1)c1cccc(OCC(=O)NCCC(=O)N2CCN(CCCOc3cc4c(Nc5ccc(F)c(Cl)c5)ncnc4cc3OC)CC2)c1)c1cc(OC)c(OC)c(OC)c1` showed a half-maximal inhibitory concentration (IC50) in assay [3] of 0.013 µM.

For the compound “H-YQQYQDATADEQGGSGSKKVAVVRTPPKSPRRRRRRRR-OH”, in assay [1], the IC50 was more than 20 µM.
